Measured values as given in patent publication US9688659B2, “Deuterated compounds for treating hematologic malignancies, and compositions and methods thereof” (NeuForm Pharmaceuticals, Inc., priority 2015, dated 2017).

Columns and labels:
[1] = biological target: T1, IDH2 R140Q (Homo sapiens, UniProt P48735, R140Q); assay: IC50 measurement against IDH2 R140Q (diaphorase/resazurin detection); format: biochemical
T1 sequence (P48735 40-452 R140Q): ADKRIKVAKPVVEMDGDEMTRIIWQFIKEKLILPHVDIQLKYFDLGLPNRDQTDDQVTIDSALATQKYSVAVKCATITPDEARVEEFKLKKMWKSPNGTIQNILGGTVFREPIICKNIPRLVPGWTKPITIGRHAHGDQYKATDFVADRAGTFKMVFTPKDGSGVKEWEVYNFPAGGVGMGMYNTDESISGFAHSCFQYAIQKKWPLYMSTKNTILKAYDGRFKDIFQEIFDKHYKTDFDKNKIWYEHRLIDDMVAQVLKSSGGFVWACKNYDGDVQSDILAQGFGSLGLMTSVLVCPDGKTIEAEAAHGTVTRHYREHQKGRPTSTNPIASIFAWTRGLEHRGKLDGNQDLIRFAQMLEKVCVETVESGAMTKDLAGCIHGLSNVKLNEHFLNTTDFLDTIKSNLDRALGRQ
Experimental: Compounds were tested in 10-dose IC50 mode with 3-fold serial dilution at a starting concentration of 10 μM. Substrate and co-factor were 8000 μM α-Ketoglutarate and 15 μM NADPH (reduced form of nicotinamide adenine dinucleotide phosphate). The reaction was carried out by mixing compound solutions with enzyme (IDH2 R140Q) and pre-incubated for 60 minutes. Then a four-fold substrate mixture was delivered to initiate the reaction. The solutions were incubated for 45 minutes at room temperature. Detection was performed using diaphorase and resazurin and measured in Envision (Perkin-Elmer). (Ex/Em=535/590 nm).

[2] = In vivo pharmacokinetic study on cynomolgus monkeys, intravenous; settings: for AUC: cynomolgus monkey, plasma, iv, 1 mg/kg; for AUC Differentiation (%): D8-enasidenib vs enasidenib
Experimental: Test compounds were dissolved to yield a final concentration at 0.2 mg/mL. The study conducted formulation analysis by HPLC. The four animals assigned to the study had body weights within ±20% of the mean body weight. The study was conducted in a cross-over matter with four phases to minimize individual difference. The dose level was 1 mg/Kg and the drug was administrated through intravenous (IV) route.
Blood samples (approximately 1.2 mL/sample) were collected from the […] vein at appropriate time points. Samples were placed in tubes containing sodium heparin and stored on ice until centrifuged. Blood samples were collected pre-dose and post-dose at post-dose 2 minutes, 5 minutes, 15 minutes, 30 minutes, 1 hour, 2 hours, 3 hours, 4 hours, 6 hours, 8 hours and 24 hours. The blood samples were centrifuged at approximately 8,000 rpm for 6 minutes at 2-8° C. Plasma samples were then collected and stored frozen at approximately −80° C. until analysis. The bioanalytical work was performed using a LC-MS/MS system.

[3] = Drug metabolism study with rat and human liver microsomes fortified with NADPH; format: in vitro ADME; settings: 10 μM, 1 mg/mL protein, 37° C., 60 minutes
Experimental: This study was carried out to evaluate drug metabolism of the test compounds by rat and human microsomes. Test compounds were incubated with liver microsomes of rat (BioreclamationIVT, Lot# NNK) and human (BioreclamationIVT, Lot# HPG) at 37° C. for 60 minutes. The substrate compound concentration was at 10 μM and final protein concentration in incubation mixtures was 1 mg/mL. Reaction was stopped by adding three fold acetonitrile to the reaction mixture. The samples were vortexed and centrifuged to precipitate the proteins. The supernatants were transferred to clean tubes for drying under a stream of N2. The dried residues were reconstituted with 30% acetonitrile. Aliquots were injected into an LC/UV/MS system for metabolite ID and profiling. The LC/UV/MS system was Agilent 1100 HPLC (pumps, autosampler and PDA) interfaced to LTQ ion trap mass spectrometer (ThermoFinnigan). HPLC column was Luna C18(2) column, 250×2.0 mm, 5 The HPLC mobile phase gradient system were water and acetonitrile with 0.05% trifluoroacetic acid in both solvents.
The experimental data indicated oxidation (hydroxylation) and de-alkylation were two of major metabolism paths for enasidenib and D8-enasidenib. For oxidation on aromatic ring, the molecular weights of hydroxylation products were the original ones plus an oxygen (+16). The C—H bond of enasidenib is replaced by C—OH. For oxidation on side chains, the molecular weights of hydroxylation products are different for enasidenib vs. D8-enasidenib. For enasidenib, the C—H bond is also replaced by C—OH and the difference in molecular weights is 16. However, since D8-enasidenib loses a deuterium due to hydroxylation (C-D is replaced by C—OH), the difference of its molecular weight to the original is 15 (that is +O+H−D=15). (FIG. 2) Thus, the hydroxylation products for aromatic ring and side chain for enasidenib and D8-enasidenib can be identified.

[4] = Average of four animals, 1 mg/Kg IV, monkey
[5] = animal MK-101, 1 mg/Kg IV, monkey
[6] = animal MK-201, 1 mg/Kg IV, monkey
[7] = animal MK-301, 1 mg/Kg IV, monkey
[8] = animal MK-401, 1 mg/Kg IV, monkey

SMILES | IC50 [1] [nM] | AUC [2, 4] [ng·h/mL] | AUC [2, 5] [ng·h/mL] | AUC [2, 6] [ng·h/mL] | AUC [2, 7] [ng·h/mL] | AUC [2, 8] [ng·h/mL] | IC50 difference from that of enasidenib [1] [%] | AUC Differentiation (%) ([2]; Average) | AUC Differentiation (%) ([2]; animal MK-101) | AUC Differentiation (%) ([2]; animal MK-201) | AUC Differentiation (%) ([2]; animal MK-301) | AUC Differentiation (%) ([2]; animal MK-401) | DMPK property over enasidenib (drug exposure AUC and half-life) ([2]; monkey, 1 mg/Kg IV) | formation of hydroxylation product on aromatic ring compared to enasidenib ([3]; FIG. 3) | hydroxylation on the side chain compared to enasidenib ([3]; FIG. 3) | formation of de-alkylation product compared to enasidenib ([3]; FIG. 4)
CC(C)(O)CNc1nc(Nc2ccnc(C(F)(F)F)c2)nc(-c2cccc(C(F)(F)F)n2)n1 [Enasidenib, enasidenib, reference compound] | 362 | 5200 | 7780 | 3440 | 4290 | 5290 |  |  |  |  |  |  |  |  |  | 
[2H]C([2H])([2H])C(O)(C([2H])([2H])[2H])C([2H])([2H])Nc1nc(Nc2ccnc(C(F)(F)F)c2)nc(-c2cccc(C(F)(F)F)n2)n1 [D8-Enasidenib] | 360 | 7900 | 8970 | 5810 | 10300 | 6530 | ≤ 10 | 62.0 | 15.3 | 69.1 | 140 | 23.5 | superior DMPK property over enasidenib | similar | greatly reduced | significantly slowed down
